Assay results as given in patent US20030134859A1 (SANKYO COMPANY, LIMITED, priority 2000, published 2003).

Test system: ABCA1 mRNA
Test: Quantitative analysis of ABCA1 mRNA (TaqMan PCR) in RAW264.7 cells
Type: cell-based, mouse
Details: 100 nM test compound, 24 hr, normalised to β-actin, DMSO = 100
Protocol: The mouse monocyte/macrophage cell line, RAW264.7 (ATCC TIB71) was purchased from Dainippon Pharmaceutical Co., Ltd. As the medium, the Dulbecco's modified Eagle's medium (DMEM medium; GIBCO, Cat. No. 11995-040) containing bovine fetal serum (the final concentration: 10% (v/v), MOREGATE, lot No. 474030), penicillin G (the final concentration: 50 units/mL, GIBCO) and streptomycin (the final concentration: 20 μg/mL, GIBCO) was used.
The culture of RAW264.7 cells was carried out in a CO2 incubator (37° C., 95% R.H., 5% of CO2).
A 2 ml volume of RAW264.7 cells suspension (1×10^6 cells/mL) was plated in each well of a 6-well plate (2×10^6 cells/well) and the cells were incubated for 2 hr in a CO2 incubator. The test compounds dissolved in DMSO were diluted with DMEM medium by 20 times, and were added to the wells at a volume of 4 μL/well (final concentration of the test compound: 100 nM). As the control, the DMSO solution was diluted with the DMEM medium by 20 times, and was added to the wells at the volume of 4 μL/well. After the cells were cultured in a CO2 incubator for 24 hr, the medium was removed and the total RNA was purified by using an RNeasy Mini Kit (Qiagen), according to the protocol attached. The concentration of the RNA in the samples obtained was calculated from absorbance at 260 nm (A260=1=40 μg/ml). Six (6) μg of total RNA were diluted with RNAase-free water so as to be 22.6 μL, which was heated at 65° C. for 10 min, and then was cooled on ice. The RNA in the solution was used as the template, and the cDNA was synthesized by using a First-strand cDNA Synthesis Kit (Amersham Pharmacia Biotech). In this reaction, a solution was prepared having the following composition and was reacted at 37° C. for 1 hr.
After the reaction, 3 μL of soution were collected from each of the reaction mixtures of the test compound-treated cell samples and that of the control cell samples. The mixed solution was used as the standard solution. The standard solution and each reaction solution were purified with a Chroma Spin-100+DEPC-H2O Column according to the protocol attached, and they were used as the template for TaqMan PCR (Template). In order to draw the calibration curve, the standard solution was diluted by every 5 times for 5 steps and each solution was used for TaqMan PCR. TaqMan PCR was carried out in ABCA1 and β-actin. As Primers for use in the TaqMan PCR, 4 oligonucleotides (abca1 forward (S3), abca1 reverse (AS3), β-actin forward (S4) and β-actin reverse (AS4)) were designed which are shown in sequences No. 5 to 8 in the sequence table described later. The synthesis and purification of these 4 oligomers was ordered from Amersham Pharmacia Biotech Co.
As FAM-TAMRA labelled TaqMan Probe, 2 kinds of oligonucleotides (abca1 (p1) and β-actin (p2)) were designed and were ordered from Applied Biosystems Co. to synthesize and purify.
The following reaction mixture of ABCA1 or β-actin was divided into 2 wells of a MicroAmp Optical 96-well Reaction Plate (Applied Biosystem Co.). TaqMan Universal PCR Master Mix was purchased from Applied Biosystem Co.
The plate was covered with a MicroAmp Optical Cap (Applied Biosystems Co.), and TaqMan PCR was carried out by using an ABI PRISM 7,700 Sequence Detection System (Applied Biosystem Co.) under the following conditions:
An analysis was made according to the procedures described in the manual of Sequence Detection Software (Applied Biosystem Co.) and the increased rate of ABCA1 mRNA due to the test compound was calculated based on the following equation.
A: Amount of the ABCA1 mRNA in the presence of the test compound
B: Amount of the β-actin mRNA in the presence of the test compound
C: Amount of the ABCA1 mRNA in the presence of DMSO
D: Amount of the β-actin mRNA in the presence of DMSO
Increase Rate (%) of ABCA1 mRNA=(A/B)/(C/D)×100

O=C(Nc1ccc(-c2ccc(O)cc2)cc1)c1cc([N+](=O)[O-])ccc1Cl [Example 135, N-[4-(4-Hydroxyphenyl)phenyl]-2-(chloro-5-nitrophenyl)carboxamide]
Rate of Increase (%) of ABCA1 mRNA: 163.0%
